Test results from US11547681B2, “N-acylethanolamide derivatives and uses thereof” (ELIEM THERAPEUTICS, INC., priority 2016, dated 2023).

Experiment: in vitro
Conditions: for Concentration (μM) of analyte PEA, 0 min / Concentration (μM) of analyte PEA, 10 min / Concentration (μM) of analyte PEA, 20 min / Concentration (μM) of analyte PEA, 30 min / Concentration (μM) of analyte PEA, 60 min / % Remaining of Initial (n = 1), 0 min / % Remaining of Initial (n = 1), 10 min / % Remaining of Initial (n = 1), 20 min / % Remaining of Initial (n = 1), 30 min / % Remaining of Initial (n = 1), 60 min / Concentration, analyte PEA / % Remaining of Initial (n = 1) / Measured concentration of PEA (analyte) / % Remaining of Initial: 1 μM
Outline: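 Cofactor-supplemented liver S9 incubations at 37 °C contained 1 µM compound; timepoints out to 60 min, acid/organic quench, then LC-MS/MS monitoring of prodrug alongside its expected drug, PEA. Data are expressed as % remaining versus the zero-minute sample.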

[1] = male, Sprague-Dawley, rat, 0 min
[2] = male, Sprague-Dawley, rat, 10 min
[3] = male, Sprague-Dawley, rat, 20 min
[4] = male, Sprague-Dawley, rat, 30 min
[5] = male, Sprague-Dawley, rat, 60 min
[6] = male, Sprague-Dawley, rat, s9, 0 h
[7] = male, Sprague-Dawley, rat, s9, 10 min
[8] = male, Sprague-Dawley, rat, s9, 20 min
[9] = male, Sprague-Dawley, rat, s9, 0.5 h
[10] = male, Sprague-Dawley, rat, s9, 1 h
[11] = male, CD-1, mouse, s9, Half-life
[12] = male, Sprague-Dawley, rat, s9, Half-life

CCCCCCCCCCCCCCCC(=O)NCCOC(=O)CCC(=O)OCC(COC(=O)CCC)OC(=O)CCC (centres unmarked) [Compound I-11]
Concentration (μM) of analyte PEA, 0 min (both, human, 0 min): 0.047 µM
Concentration (μM) of analyte PEA, 10 min (both, human, 10 min): 0.25 µM
Concentration (μM) of analyte PEA, 20 min (both, human, 20 min): 0.18 µM
Concentration (μM) of analyte PEA, 30 min (both, human, 30 min): 0.14 µM
Concentration (μM) of analyte PEA, 60 min (both, human, 60 min): 0.033 µM
% Remaining of Initial (n = 1), 0 min (both, human, s9, 0 h): 100%
% Remaining of Initial (n = 1), 10 min (both, human, s9, 10 min): 2.8%
% Remaining of Initial (n = 1), 20 min (both, human, s9, 20 min): <1.0%
% Remaining of Initial (n = 1), 30 min (both, human, s9, 0.5 h): <1.0%
% Remaining of Initial (n = 1), 60 min (both, human, s9, 1 h): <1.0%
Concentration (μM) of analyte PEA, 0 min (male, Beagle, dog, 0 min): 0.069 µM
Concentration (μM) of analyte PEA, 10 min (male, Beagle, dog, 10 min): 0.51 µM
Concentration (μM) of analyte PEA, 20 min (male, Beagle, dog, 20 min): 0.34 µM
Concentration (μM) of analyte PEA, 30 min (male, Beagle, dog, 30 min): 0.29 µM
Concentration (μM) of analyte PEA, 60 min (male, Beagle, dog, 60 min): 0.13 µM
% Remaining of Initial (n = 1), 0 min (male, Beagle, dog, s9, 0 h): 100%
% Remaining of Initial (n = 1), 10 min (male, Beagle, dog, s9, 10 min): 4.6%
% Remaining of Initial (n = 1), 20 min (male, Beagle, dog, s9, 20 min): 1.6%
% Remaining of Initial (n = 1), 30 min (male, Beagle, dog, s9, 0.5 h): <1.0%
% Remaining of Initial (n = 1), 60 min (male, Beagle, dog, s9, 1 h): <1.0%
Concentration (μM) of analyte PEA, 0 min (male, CD-1, mouse, 0 min): 0.18 µM
Concentration (μM) of analyte PEA, 10 min (male, CD-1, mouse, 10 min): 0.24 µM
Concentration (μM) of analyte PEA, 20 min (male, CD-1, mouse, 20 min): 0.13 µM
Concentration (μM) of analyte PEA, 30 min (male, CD-1, mouse, 30 min): 0.083 µM
Concentration (μM) of analyte PEA, 60 min (male, CD-1, mouse, 60 min): 0.015 µM
% Remaining of Initial (n = 1), 0 min (male, CD-1, mouse, s9, 0 h): 100%
% Remaining of Initial (n = 1), 10 min (male, CD-1, mouse, s9, 10 min): <1.0%
% Remaining of Initial (n = 1), 20 min (male, CD-1, mouse, s9, 20 min): <1.0%
% Remaining of Initial (n = 1), 30 min (male, CD-1, mouse, s9, 0.5 h): <1.0%
% Remaining of Initial (n = 1), 60 min (male, CD-1, mouse, s9, 1 h): <1.0%
half-life at 1 μM (male, CD-1, mouse, s9, Half-life (min)): < 1 min
Concentration (μM) of analyte PEA, 0 min [1]: 0 µM
Concentration (μM) of analyte PEA, 10 min [2]: 0.14 µM
Concentration (μM) of analyte PEA, 20 min [3]: 0.091 µM
Concentration (μM) of analyte PEA, 30 min [4]: 0.059 µM
Concentration (μM) of analyte PEA, 60 min [5]: 0.0062 µM
% Remaining of Initial (n = 1), 0 min [6]: 100%
% Remaining of Initial (n = 1), 10 min [7]: <1.0%
% Remaining of Initial (n = 1), 20 min [8]: <1.0%
% Remaining of Initial (n = 1), 30 min [9]: <1.0%
% Remaining of Initial (n = 1), 60 min [10]: <1.0%
half-life at 1 μM (male, Sprague-Dawley, rat, s9, Half-life (min)): < 1 min

CCCCC/C=C\C/C=C\CCCCCCCC(=O)OCC(COC(=O)CCC(=O)OCCNC(=O)CCCCCCCCCCCCCCC)OC(=O)CCCCCCC/C=C\C/C=C\CCCCC (centres unmarked) [Compound I-13]
Concentration, analyte PEA (both, human, 0 min): 0 nM
Concentration, analyte PEA (both, human, 10 min): 0 nM
Concentration, analyte PEA (both, human, 20 min): 0 nM
Concentration, analyte PEA (both, human, 30 min): 0 nM
Concentration, analyte PEA (both, human, 60 min): 0 nM
% Remaining of Initial (n = 1) (both, human, s9, 0 h): 100%
% Remaining of Initial (n = 1) (both, human, s9, 10 min): 93%
% Remaining of Initial (n = 1) (both, human, s9, 20 min): 87%
% Remaining of Initial (n = 1) (both, human, s9, 0.5 h): 78%
% Remaining of Initial (n = 1) (both, human, s9, 1 h): 45%
half-life at 1 μM (both, human, s9, Half-life): 58 min
Concentration, analyte PEA (male, Beagle, dog, 0 min): 15 nM
Concentration, analyte PEA (male, Beagle, dog, 10 min): 25 nM
Concentration, analyte PEA (male, Beagle, dog, 20 min): 20 nM
Concentration, analyte PEA (male, Beagle, dog, 30 min): 24 nM
Concentration, analyte PEA (male, Beagle, dog, 60 min): 21 nM
% Remaining of Initial (n = 1) (male, Beagle, dog, s9, 0 h): 100%
% Remaining of Initial (n = 1) (male, Beagle, dog, s9, 10 min): 70%
% Remaining of Initial (n = 1) (male, Beagle, dog, s9, 20 min): 61%
% Remaining of Initial (n = 1) (male, Beagle, dog, s9, 0.5 h): 61%
% Remaining of Initial (n = 1) (male, Beagle, dog, s9, 1 h): 37%
Concentration, analyte PEA (male, CD-1, mouse, 0 min): 0 nM
Concentration, analyte PEA (male, CD-1, mouse, 10 min): 0 nM
Concentration, analyte PEA (male, CD-1, mouse, 20 min): 0 nM
Concentration, analyte PEA (male, CD-1, mouse, 30 min): 0 nM
Concentration, analyte PEA (male, CD-1, mouse, 60 min): 0 nM
% Remaining of Initial (n = 1) (male, CD-1, mouse, s9, 0 h): 100%
% Remaining of Initial (n = 1) (male, CD-1, mouse, s9, 10 min): 89%
% Remaining of Initial (n = 1) (male, CD-1, mouse, s9, 20 min): 90%
% Remaining of Initial (n = 1) (male, CD-1, mouse, s9, 0.5 h): 79%
% Remaining of Initial (n = 1) (male, CD-1, mouse, s9, 1 h): 78%
half-life at 1 μM [11]: > 60 min
Concentration, analyte PEA [1]: 0 nM
Concentration, analyte PEA [2]: 0 nM
Concentration, analyte PEA [3]: 0 nM
Concentration, analyte PEA [4]: 0 nM
Concentration, analyte PEA [5]: 0 nM
% Remaining of Initial (n = 1) [6]: 100%
% Remaining of Initial (n = 1) [7]: 76%
% Remaining of Initial (n = 1) [8]: 74%
% Remaining of Initial (n = 1) [9]: 59%
% Remaining of Initial (n = 1) [10]: 45%
half-life at 1 μM [12]: 50 min

CCCCCCCCCCCCCCCC(=O)NCCOC(=O)CCC(=O)OC(COC(=O)CCC)COC(=O)CCC [Compound I-16]
Measured concentration of PEA (analyte) (both, human, 0 min): 0.10 µM
Measured concentration of PEA (analyte) (both, human, 10 min): 0.46 µM
Measured concentration of PEA (analyte) (both, human, 20 min): 0.42 µM
Measured concentration of PEA (analyte) (both, human, 30 min): 0.39 µM
Measured concentration of PEA (analyte) (both, human, 60 min): 0.27 µM
% Remaining of Initial (both, human, s9, 0 h): 100%
% Remaining of Initial (both, human, s9, 10 min): 4.9%
% Remaining of Initial (both, human, s9, 20 min): 2.1%
% Remaining of Initial (both, human, s9, 0.5 h): <1.0%
% Remaining of Initial (both, human, s9, 1 h): <1.0%
half-life at 1 μM (both, human, s9, Half-life): < 10 min
Measured concentration of PEA (analyte) (male, Beagle, dog, 0 min): 0.053 µM
Measured concentration of PEA (analyte) (male, Beagle, dog, 10 min): 0.26 µM
Measured concentration of PEA (analyte) (male, Beagle, dog, 20 min): 0.33 µM
Measured concentration of PEA (analyte) (male, Beagle, dog, 30 min): 0.29 µM
Measured concentration of PEA (analyte) (male, Beagle, dog, 60 min): 0.23 µM
% Remaining of Initial (male, Beagle, dog, s9, 0 h): 100%
% Remaining of Initial (male, Beagle, dog, s9, 10 min): 2.1%
% Remaining of Initial (male, Beagle, dog, s9, 20 min): <1.0%
% Remaining of Initial (male, Beagle, dog, s9, 0.5 h): <1.0%
% Remaining of Initial (male, Beagle, dog, s9, 1 h): <1.0%
half-life at 1 μM (male, Beagle, dog, s9, Half-life): < 10 min
Measured concentration of PEA (analyte) (male, CD-1, mouse, 0 min): 0.33 µM
Measured concentration of PEA (analyte) (male, CD-1, mouse, 10 min): 0.78 µM
Measured concentration of PEA (analyte) (male, CD-1, mouse, 20 min): 0.68 µM
Measured concentration of PEA (analyte) (male, CD-1, mouse, 30 min): 0.59 µM
Measured concentration of PEA (analyte) (male, CD-1, mouse, 60 min): 0.43 µM
% Remaining of Initial (male, CD-1, mouse, s9, 0 h): 100%
% Remaining of Initial (male, CD-1, mouse, s9, 10 min): 3.7%
% Remaining of Initial (male, CD-1, mouse, s9, 20 min): <1.0%
% Remaining of Initial (male, CD-1, mouse, s9, 0.5 h): <1.0%
% Remaining of Initial (male, CD-1, mouse, s9, 1 h): <1.0%
half-life at 1 μM [11]: < 10 min
Measured concentration of PEA (analyte) [1]: 0.050 µM
Measured concentration of PEA (analyte) [2]: 0.13 µM
Measured concentration of PEA (analyte) [3]: 0.13 µM
Measured concentration of PEA (analyte) [4]: 0.058 µM
Measured concentration of PEA (analyte) [5]: 0.020 µM
% Remaining of Initial [6]: 100%
% Remaining of Initial [7]: 3.0%
% Remaining of Initial [8]: <1.0%
% Remaining of Initial [9]: <1.0%
% Remaining of Initial [10]: <1.0%
half-life at 1 μM [12]: < 10 min
half-life at 1 μM (male, Sprague-Dawley, rat, s9, Half-life, calculated value in parentheses): 2 min

C[C@]12CC[C@H]3[C@@H](CCC4=CC(=O)CC[C@@]43C)[C@@H]1CC[C@@H]2O [Testosterone, testosterone, reference compound]
Half-life (Control Compound, Human liver S9): 28 min
Half-life (Control Compound, Mouse liver S9): 9.0 min
CLint (Control Compound, Rat liver S9): 0.260 ml/min/mg protein
Half-life (Human liver S9): 28 min
half-life (male, Beagle, s9): 25 min
Half-life (male, CD-1, mouse, s9): 17 min
half-life (male, CD-1, mouse, s9): 8.7 min
half-life (male, Sprague-Dawley, rat, s9, Half-life, Control Compound, Rat liver S9): 2.7 min
half-life at 1 μM (male, Sprague-Dawley, rat, s9, Half-life, Rat liver S9): 2.7 min
half-life (male, Sprague-Dawley, rat, s9, Half-life, control compound, rat liver S9): 2.7 min
